Assay results reported in US20260198493A1, “HYDRAZIDE COMPOUND AND AGRICULTURAL/HORTICULTURAL FUNGICIDE” (Nippon Soda Co., Ltd., priority 2022, published 2026).

How the values were obtained:
Botrytis cinerea [1] = type: cell-based; conditions: 120 h, 25 ppm by volume, Vogel medium, 20° C., five days, dark, read-out: growth inhibition ratio
Colletotrichum acutatum = assay: Fungicidal effect test against fungi causing apple anthracnose; conditions: 96 h, read-out: growth inhibition ratio
Glomerella cingulata = assay: Fungicidal effect test against fungi causing grape ripe rot disease; conditions: Colletotrichum gloeosporioides, 72 h, read-out: growth inhibition ratio
Botrytis cinerea [2] = assay: Control test of cucumber gray mold (sprayed young cucumber seedlings); type: in vivo; conditions: 96 h, 125 ppm by mass spray, four days after inoculation
Experimental: Then, the drug liquid was sprayed onto young cucumber seedlings cultivated in a nursery pot (variety “Jihai”-based, cotyledon stage), and then air-dried. […] They were left still in a moist room at 20° C. Four days after inoculation, leaves of the young cucumber seedlings were visually observed, and the control value was calculated from the lesion area ratio in accordance with the following equation. [formula]

SMILES | inhibition of growth at 25 ppm (Botrytis cinerea [1]) [%] | inhibition of growth at 25 ppm (Colletotrichum acutatum) [%] | inhibition of growth at 25 ppm (Glomerella cingulata) [%] | pest or weed control at 125 ppm (Botrytis cinerea [2]) [%]
Cc1ccc(CN(C)NC(=O)c2cc(C)nnc2Oc2cccc(C3CC3)c2F)c(C)c1 [b-2] | ≥ 75 | ≥ 75 | ≥ 75 | –
Cc1ccc(CN(NC(=O)c2cc(C)nnc2Oc2cccc(C3CC3)c2F)C(=O)C(F)(F)F)c(C)c1 [b-4] | ≥ 75 | ≥ 75 | ≥ 75 | –
CC(=O)N(Cc1ccc(C)cc1C)NC(=O)c1c(Oc2cccc(C3CC3)c2F)nnc(Cl)c1C [b-10] | ≥ 75 | ≥ 75 | ≥ 75 | ≥ 75
CC(=O)N(Cc1ccc(C)cc1C)NC(=O)c1cc(Cl)nnc1Oc1cccc(C(F)(F)F)c1 [b-11] | ≥ 75 | ≥ 75 | ≥ 75 | –
Cc1cc(C(=O)NN(C=O)Cc2ccc(Cl)cc2Cl)c(Oc2cccc(C3CC3)c2F)nn1 [b-12] | ≥ 75 | ≥ 75 | ≥ 75 | –
COC(=O)N(Cc1ccc(C)cc1C)NC(=O)c1cc(C)nnc1Oc1cccc(C2CC2)c1F [b-17] | ≥ 75 | ≥ 75 | ≥ 75 | –
Cc1ccc(CN(NC(=O)c2cc(C)nnc2Oc2cccc(C3CC3)c2F)C(=O)C(C)(C)C)c(C)c1 [b-19] | – | ≥ 75 | – | –
Cc1ccc(CN(NC(=O)c2cc(C)nnc2Oc2cccc(C3CC3)c2F)C(=O)c2ccccc2)c(C)c1 [b-24] | ≥ 75 | ≥ 75 | ≥ 75 | –
Cc1ccc(CN(NC(=O)c2cc(C)nnc2Oc2cccc(C3CC3)c2F)C(=O)c2cnn(C)c2)c(C)c1 [b-39] | ≥ 75 | ≥ 75 | ≥ 75 | –
COC(=O)N(Cc1ccc(O)cc1C)NC(=O)c1cc(C)nnc1Oc1cccc(C2CC2)c1F [b-41] | – | ≥ 75 | ≥ 75 | –
Cc1ccc(CN(NC(=O)c2cc(C)nnc2Oc2cccc(C3CC3)c2F)C(=O)N(C)C)c(C)c1 [b-47] | – | ≥ 75 | ≥ 75 | –
Cc1ccc(CN(NC(=O)c2cc(C)ncc2Oc2cccc(C3CC3)c2F)C(=O)N(C)C)c(C)c1 [b-48] | ≥ 75 | ≥ 75 | ≥ 75 | –
Cc1ccc(CN(NC(=O)c2nc(C)ncc2Oc2cccc(C3CC3)c2F)C(=O)N(C)C)c(C)c1 [b-49] | – | ≥ 75 | ≥ 75 | –
COC(=O)N(Cc1ccc(C)cc1C)NC(=O)c1cc(C)nnc1Oc1ccc(C2CC2)cc1 [b-54] | ≥ 75 | ≥ 75 | ≥ 75 | –
Cc1ccc(CN(NC(=O)c2cc(C)nnc2Oc2cccc(C3CC3)c2F)C(=O)C(=O)N(C)C)c(C)c1 [b-56] | – | ≥ 75 | ≥ 75 | –
COC(=O)N(Cc1ccc(C)cc1C)NC(=O)c1cc(C)nnc1Oc1ccc2ccccc2c1 [b-61] | ≥ 75 | ≥ 75 | ≥ 75 | –
COC(=O)N(Cc1ccc(C)cc1C)NC(=NO)c1cc(C)nnc1Oc1cccc(C2CC2)c1F [b-63] | ≥ 75 | ≥ 75 | ≥ 75 | –
COc1ccc(CN(NC(=O)c2cc(C)nnc2Oc2cccc(C3CC3)c2F)c2cccc(C)c2)cc1 [b-73] | – | – | ≥ 75 | –
COC(=O)N(Cc1ccc(C)cc1C)NC(=O)c1cc(C)nnc1Sc1cccc(C(F)(F)F)c1 [b-78, Methyl 1-(2,4-dimethylbenzyl)-2-(6-methyl-3-((3-(trifluoromethyl)phenyl)thio)pyridazine-4-carbonyl)hydrazine-1-carboxylate] | ≥ 75 | ≥ 75 | ≥ 75 | –
COC(=O)C(=O)N(Cc1ccc(C)cc1C)NC(=O)c1cc(C)nnc1Oc1cccc(C2CC2)c1F [b-82] | ≥ 75 | ≥ 75 | ≥ 75 | –
COC(=O)N(CCCc1ccc(C)cc1)NC(=O)c1cc(C)nnc1Oc1cccc(C2CC2)c1F [b-89] | ≥ 75 | ≥ 75 | ≥ 75 | –
COC(=O)N(Cc1ccc(C)cc1C)NC(=O)c1cc(C)nnc1Oc1ccc2cccnc2c1 [b-97] | – | – | ≥ 75 | –
COC(=O)N(Cc1ccc(C)cc1C)NC(=O)c1cc(C)nnc1Oc1ccc(Br)cc1F [b-98] | ≥ 75 | – | – | –

SMILES | inhibition of growth at 25 ppm (Botrytis cinerea [1]) [%] | inhibition of growth at 25 ppm (Colletotrichum acutatum) [%] | inhibition of growth at 25 ppm (Glomerella cingulata) [%] | pest or weed control at 125 ppm (Botrytis cinerea [2]) [%]
COC(=O)N(Cc1ccc(C)cc1C)NC(=O)c1cc(C)nnc1Oc1ccc(Cl)cc1F [b-99] | ≥ 75 | – | – | –
COC(=O)N(Cc1sc(Cl)nc1Cl)NC(=O)c1cc(C)nnc1Oc1cccc(C2CC2)c1F [b-120] | ≥ 75 | ≥ 75 | ≥ 75 | –
COC(=O)N(Cc1ccc(C)cc1C)NC(=O)c1nc(C)nnc1Oc1cccc(Br)c1 [b-129] | ≥ 75 | ≥ 75 | ≥ 75 | –
COC(=O)N(Cc1ccc(C)cc1C)NC(=O)c1cc(C)nnc1Oc1cccc(C(C)=O)c1 [b-131] | – | ≥ 75 | ≥ 75 | –
COC(=O)N(Cc1ccc(C)cc1C)NC(=O)c1cc(C)nnc1Oc1cccc(C(C)C)c1 [b-132] | – | ≥ 75 | ≥ 75 | –
COC(=O)N(Cc1ccc(C)cc1C)NC(=O)c1cc(C)nnc1Oc1cccc(OC(F)(F)F)c1 [b-133] | ≥ 75 | ≥ 75 | ≥ 75 | –
COC(=O)N(Cc1ccc(C)cc1C)NC(=O)c1cc(C)nnc1Oc1cccc(SC)c1 [b-136] | ≥ 75 | ≥ 75 | ≥ 75 | –
COC(=O)N(Cc1ccc(C)cc1C)NC(=O)c1cc(C)nnc1Oc1cccc(N(C)C)c1 [b-137] | – | ≥ 75 | ≥ 75 | –
COC(=O)N(Cc1ccc(C)cc1C)NC(=O)c1cnncc1Oc1cccc(C2CC2)c1F [b-142, Methyl 2-(5-(3-cyclopropyl-2-fluorophenoxy)pyridazine-4-carbonyl)-1-(2,4-dimethylbenzyl)hydrazine-1-carboxylate] | ≥ 75 | ≥ 75 | ≥ 75 | –
COC(=O)N(Cc1cnc2ccccc2c1)NC(=O)c1cc(C)nnc1Oc1cccc(C2CC2)c1F [b-161] | – | ≥ 75 | ≥ 75 | –
CSC(=O)N(Cc1ccc(C)cc1C)NC(=O)c1cc(C)nnc1Oc1cccc(C2CC2)c1F [b-166, S-methyl 2-(3-(3-cyclopropyl-2-fluorophenoxy)-6-methylpyridazine-4-carbonyl)-1-(2,4-dimethylbenzyl)hydrazine-1-carbothioate] | ≥ 75 | ≥ 75 | ≥ 75 | –
COC(=O)N(NC(=O)c1cc(C)nnc1Oc1cccc(C2CC2)c1F)C1(c2ccc(Br)cc2)CC1 [b-179] | ≥ 75 | ≥ 75 | ≥ 75 | –
COC(=O)N(Cc1ccc(C)cc1C)NC(=O)c1cc(-c2ccc(F)cc2)ncc1Oc1cccc(C2CC2)c1F [b-185] | ≥ 75 | ≥ 75 | ≥ 75 | –
COC(=O)N(Cc1ccc(C)cc1C)NC(=O)c1cc(S(C)(=O)=O)ncc1Oc1cccc(C2CC2)c1F [b-193] | ≥ 75 | ≥ 75 | ≥ 75 | –
COC(=O)N(Cc1ccc(C)cc1C)N(C)C(=O)c1cc(C)nnc1Oc1cccc(C2CC2)c1F [b-195] | ≥ 75 | ≥ 75 | ≥ 75 | –
Cc1cc(C(=O)NN2CCCc3ccccc32)c(Oc2cccc(C3CC3)c2F)nn1 [b-198] | – | – | ≥ 75 | –
COC(=O)N(Cc1ccc(C)cc1C)NC(=O)c1c(Oc2cccc(Cl)c2F)cncc1Oc1cccc(Cl)c1F [b-203] | – | ≥ 75 | ≥ 75 | –
COC(=O)N(Cc1ccc(C)cc1C)NC(=O)c1cc2cncn2nc1Oc1cccc(C2CC2)c1 [b-210, Methyl 2-(2-(3-cyclopropylphenoxy)imidazo[1,5-b]pyridazine-3-carbonyl)-1-(2,4-dimethylbenzyl)hydrazine-1-carboxylate] | – | ≥ 75 | ≥ 75 | –
COC(=O)N(Cc1ccc(C)cc1C)NC(=O)c1c(C#N)cncc1Oc1cccc(C2CC2)c1F [b-216] | – | ≥ 75 | ≥ 75 | –
COC(=O)N(Cc1ccc(C)cc1C)NC(=O)c1cc(NC(=O)OC(C)(C)C)nnc1Oc1cccc(Cl)c1F [b-218] | ≥ 75 | – | – | –
COC(=O)N(Cc1ccc(C)cc1C)NC(=O)c1c(Oc2cccc(C3CC3)c2F)cncc1C(C)=O [b-221] | ≥ 75 | ≥ 75 | ≥ 75 | –
COC(=O)N(NC(=O)c1cc(C)nnc1Oc1cccc(C2CC2)c1F)c1ccc(C)s1 [b-222] | – | – | ≥ 75 | –
COC(=O)N(Cc1ccc(OC)cc1C)NC(=O)c1c(Oc2cccc(C3CC3)c2)cnn(C(C)C)c1=O [b-225] | ≥ 75 | ≥ 75 | ≥ 75 | –
